{"source": "patent US12240870B2", "about": "“Sequencing method for CAR T cell therapy” (Purdue Research Foundation, priority 2018, dated 2025)", "key": {"[1]": {"target": "T1, FRβ (CHO-β) (Homo sapiens, UniProt P14207)", "T1 construct": "expressed in transfected cells; host or cells: CHO (Chinese hamster ovary) cells", "T1 sequence (P14207 17-230)": "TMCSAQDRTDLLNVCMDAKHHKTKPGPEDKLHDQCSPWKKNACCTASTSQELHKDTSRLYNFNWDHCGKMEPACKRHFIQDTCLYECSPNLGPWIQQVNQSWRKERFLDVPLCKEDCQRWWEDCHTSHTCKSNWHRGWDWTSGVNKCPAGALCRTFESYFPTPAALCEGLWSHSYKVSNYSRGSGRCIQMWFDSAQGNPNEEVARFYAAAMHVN", "assay": "3H-EC17 cell-based radioligand binding assay on CHO-β cells", "settings": "2 h at 37° C.", "method": "FIG. 10, Panel A: Kd values of ^3H-EC17 uptake by FR+ target cells after a 2 hour incubation at 37° C. (calculated from the numbers of molecules bound per cell). Panel B: Kd value of ^3H^−EC17 uptake by E2-CAR-T cells (˜24% EGFRt+, ˜95:5 CD8/CD4 ratio) after a 2 hour incubation at room temperate (calculated from total cell-associated radioactivity, DPM).\nThe bispecific affinities of EC17 CAM (a CAM is equivalent to a “bridge” or the “compound” in this application) were assessed using ^3H-EC17 in cell-based radioligand binding assays. […] The whole cell lysates were quantitated for the level of radioactivity and cellular protein content by standard Pierce BCA protein assay. The number of ^3H-EC17 molecules bound per cell was calculated to determine the dissociation constants (Kd) for FRα (KB) and FRβ (CHO-β) respectively (FIG. 10).\nThe EC17 has already been tested in the clinic for immunotherapy and optical imaging purposes. To directly quantify its bispecific binding affinities, ^3H-EC17 was synthesized and radioligand binding assays were carried out on KB and CHO-β cell lines representing FRα+ and FRβ+ target cells, respectively, and on unsorted EGFRt CAR-T cells representing the effector cells."}, "[2]": {"system": "HOS-FRα xenografts", "assay": "HOS-FRα osteosarcoma subcutaneous xenograft, E2 CAR-T cells plus EC17", "format": "in vivo, NSG mice", "text": "Panel A: Schematic diagram to show dose scheduling of CAR-T cells (˜6 million, day 0) plus EC17 in NSG mice with 3-day-old subcutaneous HOS-FRα xenografts (n=5). Starting 3 days after CAR-T cell injection (6 days after tumor implant), 3 cycles of EC17 M/Th/M […], i.e. on days 3/6/10, 17/20/24, and 31/34/38. Panel B: Measurements of tumor volumes and change in body weights. Due to tumor progression, five mice received CAR-T cells only (no EC17) were euthanized on days 23-31, and five EC17 treated mice were euthanized on days 33 (2 mice) and 47 (3 mice), respectively. Panel C: Flow cytometric analysis of CAR-T cells (human CD3ε+EGFRT+) PER 100 μL OF WHOLE BLOOD PLOTTED ON A LOGARITHMIC SCALE (LEFT) AND TUMOR-infiltrating CAR-T cells at the time of euthanasia (right).\nHOS-FRα (i.e. HOS-143b-LV-FRα) is a subclone of HOS-143B (ATCC CRL-8303) stably transfected with human FRα. HOS-143B was originally derived from a […] with osteosarcoma. The tumor cells were grown in folate-deficient RPMI 1640 with 5% FBS at 37° C. in a 5% CO2 humidified atmosphere. For the in-vivo study, tumor cells were inoculated subcutaneously at 1×10^6 cells per animal.\nEGFRt-sorted anti-FITC E2 scFv-CAR T cells were frozen in a T-cell freezing medium. Upon arrival, vials of frozen CAR-T cells were immediately stored at −80° C. The CAR-T cells were quickly thawed at 37° C., washed twice with PBS, and used for animal injection at 6 million viable EGFRt+ E2 CAR-T cells (CD4/CD8 at ˜1:1) per animal. A small aliquot was taken on the day infusion for flow cytometric analysis of E2-CAR T-cell phenotypes.\nEC17 dosing solutions were prepared when dosing began by weighing appropriate amounts of each compound, reconstituting in PBS, pH 7.4, sterile filtering the drug solution through a 0.22 μm PVDF syringe filter, and freezing aliquots for each day of dosing at −20° C.\nAll EC17 doses were given towards the end of day (3-4 PM) to allow potential CRS (cytokine release syndrome) to develop overnight. On the following morning, animals were scored according to a CRS grading system (see below).\nTumor growth, body weight, and overall assessment: Tumor sizes were monitored 2-3 times/week and body weight measured 2-3 times/week. On the days immediately after any EC17 dose, body weight measurement was taken daily and attention was given to gross animal morphology and behavior.\nEuthanasia: Euthanasia was performed when mice had lost ≥20% of their weight, when tumors reached ≥1500 mm^3. Euthanasia was also performed if mice lost a lot of weight in a short duration (e.g., due to severe head-tilt), or when they approached moribund conditions per CRS grading system. • EC17 intra-host dose escalation treatment (3 cycles). See FIG. 16. • Antitumor activity (N=5)\nAll animal care and use were performed according to NIH guidelines and in compliance with protocols approved by the Purdue University Animal Use and Care Committee. Female 4 to 5-week-old NOD/SCID gamma (NSG™) mice (stock number: 005557) were purchased from The Jackson Laboratory (Bar Harbor, ME). Unless specifically indicated, all animals were maintained on a FA-deficient diet (TestDiet, St. Louis, MO) upon arrival and throughout the study. To establish subcutaneous xenografts, MDA-MB-231 and HOS-FRα were implanted in the right flank region at 2.5×10^6 and 1×10^6 cells per animal, respectively. […] Subcutaneous tumors were measured 2-3 times per week with a caliper and calculated using the ellipsoidal formula (length×width^2)/2. […]"}}, "note": "Entries after “also recorded” stand apart in the source; their conditions may differ."}
{"smiles": "Nc1nc2ncc(CNc3ccc(C(=O)N[C@@H](CCC(=O)NCCNC(=S)Nc4ccc(-c5c6ccc(=O)cc-6oc6cc(O)ccc56)c(C(=O)O)c4)C(=O)O)cc3)nc2c(=O)[nH]1", "note": "[EC17, FA-(γ)-ethylenediamine-FITC]", "values": [{"measurement": "Kd", "setting": "[1]", "result": 0.8, "unit": "nM"}, {"measurement": "tumor volume (antitumor activity)", "setting": "[2]; 6 million E2 CAR-T cells + EC17 5/100/1000 nmol/kg, M/Th/M (Cohort 2, FIG. 4)", "result": "significant tumor regression"}, {"measurement": "body weight loss or CRS", "setting": "[2]; 6 million E2 CAR-T cells + EC17 slow dose escalation M/Th/M (Cohort 2, FIG. 4)", "result": "without body weight loss or CRS; also recorded: No body weight loss or symptoms of cytokine release syndrome (CRS) were observed"}, {"measurement": "day of euthanasia due to tumor progression", "setting": "[2]; five EC17 treated mice, EC17 M/Th/M dose escalation", "result": "33 (2 mice) and 47 (3 mice) days"}, {"measurement": "CRS or body weight loss", "setting": "[2]; ~6 million E2-CAR-T cells + EC17 5/10/100, 5/30/300, 5/50/500 nmol/kg Cycles 1-3, M/Th/M (FIG. 14)", "result": "no CRS or body weight loss"}, {"measurement": "tumor growth", "setting": "[2]; ~6 million E2-CAR-T cells + EC17 5/10/100, 5/30/300, 5/50/500 nmol/kg Cycles 1-3, M/Th/M, 6-day break (FIG. 14)", "result": "significant delay in tumor growth; also recorded: stopped responding to treatment in Cycle 3"}]}
